This data set in a line: gradient 5% acetonitrile 3 min, to 50% in 2 min, to 85% in 15 min, held 3 min, 100 µL/min. The conditions noted are these: column: Zorbax Extend-C18 2.1 x 50 mm; eluents: water / acetonitrile, 0.1% formic acid. A digest of the protocol: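 In both positive and negative ionization mode, a quadrupole time-of-flight mass spectrometer coupled to HPLC analyzed pure standards run in mixtures of ~100 molecules. The Zorbax Extend-C18 column (2.1 × 50 mm, 1.8 μm) was operated at 100 μL/min with water and acetonitrile, each containing 0.1% formic acid. The dead volume was 40 μL and the dwell volume 900 μL. Retention time came from adduct peaks that were computationally picked and individually inspected by hand.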
In turn, `Cc1sc(-c2nc(-c3ccc(F)cc3)no2)cc1S(=O)(=O)N1CCN(c2ncccn2)CC1` came in with an RP-LC retention time of 1240 s.

The compound `Fc1ccc(OCc2nnc3sc(CCCc4ccccc4)nn23)cc1` yielded an RP-LC retention time of 1030 s.

In turn, `COc1ccc(Cl)cc1NC(=O)Nc1ccc2c(c1)C(=O)N(C)CCO2` displayed an RP-LC retention time of 766 s.

With `O=C(NCc1ccncc1)c1csc(-c2ccc(N3CCCC3)nc2)n1`, the RP-LC retention time is 559 s.

For `CCc1nnc(-c2nnc(N3CCCC3)c3ccccc23)o1`, the RP-LC retention time was determined as 625 s.

Take `Brc1c(Br)c(Br)c2n[nH]nc2c1Br`: the RP-LC retention time worked out at 1010 s.

In the case of `Cn1c(=O)c2ccn(CC(=O)NCc3cccc(Cl)c3)c2n(C)c1=O`, the RP-LC retention time came out at 703 s.

In the case of `Cc1cc2c(cc1S(=O)(=O)N1CCCC1C(=O)N(C)C1CCCCC1)OC(C)C(=O)N2` (centres undefined), the RP-LC retention time is 806 s.

For `CCOc1ccc(NC(=O)c2sc(N3CCCC3=O)nc2CC)cc1`, the RP-LC retention time was 875 s.

The compound `Cc1cc(C)n(Cc2nc(-c3ccc(NC(=O)C4CCCC4)cc3)oc2C)n1` returned an RP-LC retention time of 931 s.

Regarding `Cc1ccccc1NS(=O)(=O)c1cc(-c2cc(C(F)(F)F)on2)sc1C`, the RP-LC retention time worked out at 1180 s.

The compound `Cc1cc(C)cc(NS(=O)(=O)c2cc3n(c2)CCCNC3=O)c1` returned an RP-LC retention time of 678 s.

In the case of `Cc1ccc(NS(=O)(=O)c2cc(-c3[nH]ncc3C(=O)N3CCCC3)oc2C)cc1C`, the RP-LC retention time was 776 s.

As to `COc1ccc(C(=O)N2CCn3c(C)nnc3C2)c(OC)c1`, the RP-LC retention time stood at 557 s.

`COc1ccc(/C=C/C(=O)Nc2ccccc2C(=O)O)cc1OC` displayed an RP-LC retention time of 927 s.

`COc1ccc(OCc2nn3c(COc4ccc(F)cc4)nnc3s2)cc1` came in with an RP-LC retention time of 928 s.

`O=C(NCCNS(=O)(=O)CCOc1ccc(F)cc1)c1ccc(NC(=O)C2CC2)cc1` returned an RP-LC retention time of 710 s.

As to `COc1ccc(-c2nc(Cn3cnc4nc5c(cc4c3=O)CCCC5)c(C)o2)c(OC)c1`, the RP-LC retention time worked out at 845 s.

`Cc1nc(-c2ccccc2)cc2nn(CC(=O)NC(C)CCc3ccccc3)c(=O)n12` (centres undefined) gave an RP-LC retention time of 989 s.

As to `O=C(Nc1ccc(N2CCOCC2)cc1)C1CCc2sc(C(=O)N3CCCC3)cc2C1` (centres undefined), the RP-LC retention time turned out to be 669 s.

As for `CC(C)CC(=O)N(C)CCc1noc(-c2ccc(C(=O)N3CCOCC3)cc2)n1`, the RP-LC retention time amounted to 695 s.

Compound `CN(C)[C@@H]1CN(C(=O)c2ccc(Br)cc2F)C[C@H]1CO` came in with an RP-LC retention time of 581 s.

`Cc1ccc(-c2cn3c(CC(=O)Nc4ccc5c(c4)OCCO5)csc3n2)cc1C`: the RP-LC retention time came out at 806 s.

As for `CCOC(=O)c1cccc(NC(=O)C2CCN(S(=O)(=O)c3cn(C)cn3)CC2)c1`, the RP-LC retention time turned out to be 735 s.

The compound `Cc1cc(-c2nnc(C3CCC3)o2)c(C)n1CC(=O)NCc1ccccc1F` had an RP-LC retention time of 858 s.

For the compound `O=C(Nc1ccc(Nc2ccncc2)cc1)c1ccc([N+](=O)[O-])cc1`, the RP-LC retention time amounted to 1250 s.

Compound `CC(C)CNC(=O)C1CCN(c2nc3ccc(-c4cncnc4)nc3s2)CC1` yielded an RP-LC retention time of 663 s.

In turn, `CN(C)c1ccc(C(=O)NC(Cc2ccccc2)c2nnc(N3CCCCC3)o2)cc1` (centres undefined) yielded an RP-LC retention time of 889 s.

For `Cc1cccc(NC(=O)c2cc(C(C)C)n3nccc3n2)c1`, the RP-LC retention time was 1160 s.

`Cc1noc(-c2ccnc(-n3cnc(C(=O)NC4CCCCCC4)c3)c2)n1` showed an RP-LC retention time of 915 s.

In turn, `O=C(C1CCCO1)N1CCC(c2cnn(-c3cccc(F)c3)c2)CC1` (centres undefined) gave an RP-LC retention time of 792 s.

For the compound `CCn1ccc(C(=O)N2CCN(C(=O)N3C[C@H]4C[C@H](C3)[C@H]3CCCC(=O)N3C4)CC2)n1`, the RP-LC retention time was 609 s.

As for `CN1C(=O)CCc2cc(NC(=O)Cc3c(F)cccc3Cl)ccc21`, the RP-LC retention time was found to be 784 s.

In turn, `CC(C)CNC(=O)N1c2ccccc2CC1c1nc(C2CC2)no1` (centres undefined) came in with an RP-LC retention time of 925 s.

The compound `O=C(O)/C=C\C(=O)Nc1ccc(-c2ccccc2)cc1` came in with an RP-LC retention time of 903 s.

Turning to `O=C(CCc1cccc2[nH]ccc12)NCc1ccc(N2CCOCC2)cc1`, the RP-LC retention time came out at 714 s.

Compound `CCN1CCCC1CNS(=O)(=O)c1ccc2c(c1)CCN2C(=O)CCC(=O)N1CCCCC1` (centres undefined) showed an RP-LC retention time of 620 s.

With `O=c1[nH]c2ccc(S(=O)(=O)N3CCN(c4nc5ccccc5[nH]4)CC3)cc2o1`, the RP-LC retention time turned out to be 522 s.

As to `Cc1ccc(-n2c(N3CCCC(C(=O)NCc4ccc(F)cc4F)C3)nc3ccsc3c2=O)cc1` (centres undefined), the RP-LC retention time was 918 s.

`CCS(=O)(=O)N1CC(=O)N(c2ccc(F)cc2)C(C)(C(=O)NC2CCCCCCC2)C1` (centres undefined) registered an RP-LC retention time of 938 s.

With `Cn1nc(CNC(=O)C2(C)CCCCC2)c2c1CCN(S(C)(=O)=O)C2`, the RP-LC retention time was found to be 702 s.

`Cc1cc(C)cc(C(=O)N2CCCC(C(=O)NCc3cccs3)C2)c1` (centres undefined) registered an RP-LC retention time of 832 s.

With `COc1cccc(Nc2cc(C)nc3ccnn23)c1`, the RP-LC retention time worked out at 610 s.

Take `CC(C)CNC(=O)C1CCCN(c2cnc3nccnc3c2)C1` (centres undefined): the RP-LC retention time was 658 s.

`CSCC(CO)NC(=O)/C=C/c1c(C)[nH]c(=O)[nH]c1=O` (centres undefined) gave an RP-LC retention time of 564 s.

In the case of `COc1ccccc1NC(=O)NC1CCN(c2cc(C)cc(C)c2)C1=O` (centres undefined), the RP-LC retention time was found to be 881 s.

The compound `Cc1ccc(S(=O)(=O)N2CCC3(CC2)NCCN=C3NCc2ccccc2Cl)cc1C` yielded an RP-LC retention time of 768 s.

Regarding `CC(C)NC(=O)N1CCC(OC2CCN(Cc3ccccc3)CC2)CC1`, the RP-LC retention time stood at 564 s.

`Cc1ccc(NC(=O)N2CCCC2c2c(C)noc2C)cc1F` (centres undefined) returned an RP-LC retention time of 809 s.

As for `CCc1ccc(CNC(=O)c2c(O)c3cccnc3[nH]c2=O)cc1`, the RP-LC retention time is 1040 s.

With `COc1ccc(-c2ncc3c(n2)CCN(C(=O)c2cc(F)ccc2Cl)C3)cc1`, the RP-LC retention time is 966 s.

The compound `CCOc1ccc(OCC)c(NC(=O)C2CCN(C(=O)C3Sc4ccccc4NC3=O)CC2)c1` (centres undefined) displayed an RP-LC retention time of 882 s.

`COc1cc(=O)n(-c2ccccc2)nc1C(=O)NC(c1ccccc1)c1ccccc1`: the RP-LC retention time was found to be 828 s.

For the compound `Cc1ccc(-c2nc3n(CC(=O)N4CCOCC4)c4c(c(=O)n3n2)CCC4)cc1`, the RP-LC retention time amounted to 699 s.

`O=C(COc1ccc(Cl)cc1)Nc1nc(-c2cccc3ccccc23)cs1` had an RP-LC retention time of 1220 s.

Turning to `COc1ccc(Cl)cc1NC(=O)NCC1CN(CC2CC2)CC12CCCCC2` (centres undefined), the RP-LC retention time turned out to be 786 s.

The compound `Cc1c(C(=O)N2CCSCC2)cnn1-c1ccc(-c2nc(C(C)(C)C)no2)cn1` had an RP-LC retention time of 1070 s.

For `Cc1cc2c(cc(C(=O)N3CCC(C(=O)N4CCCC4)CC3)n2Cc2c(F)cccc2Cl)o1`, the RP-LC retention time worked out at 897 s.

Take `CCN1C(=O)c2cccnc2Sc2cc(NC(=O)CCc3cccc(OC)c3)ccc21`: the RP-LC retention time came to 855 s.

In the case of `Cc1ccc(CNC(=O)c2cccc(-c3cnc(N4CCCC4)nc3)c2)o1`, the RP-LC retention time was determined as 817 s.

`O=C(c1c[nH]c2ccccc12)N1CCN(c2cc(-c3ccc(Cl)cc3)[nH]n2)CC1` returned an RP-LC retention time of 811 s.

`Cc1oc(-c2cccc(Cl)c2)nc1Cn1nnc(-c2nc(-c3cccnc3)no2)c1C` gave an RP-LC retention time of 1080 s.

The compound `CCn1c(CCNC(=O)c2ccc(F)cc2F)nc2cccnc21` had an RP-LC retention time of 641 s.

Compound `COc1ccc(CCC(=O)NC2CCN(c3nnc4cccc(C)n34)CC2)cc1` showed an RP-LC retention time of 647 s.

`COc1cccc(C(=O)Nc2ccc3c(c2)Sc2ncccc2C(=O)N3C)c1`: the RP-LC retention time is 785 s.

The compound `CC(C)NC(=O)CCC(=O)N1CCCn2nc(-c3cn(C)c4ccccc34)cc21` yielded an RP-LC retention time of 718 s.

For the compound `O=C(NCCc1csc(C2CCN(C(=O)C3CCCCC3)CC2)n1)C1CC1`, the RP-LC retention time was 734 s.

`Cc1cc(C)cc(NC(=O)C2CCN(S(=O)(=O)c3ccc4c(c3)NC(=O)C(C)O4)CC2)c1` (centres undefined) showed an RP-LC retention time of 903 s.

`Cc1ccc(C(=O)Nc2nc(-c3ccc(C(C)(C)C)cc3)cs2)cc1` displayed an RP-LC retention time of 1370 s.

The compound `CN1CCOc2ccc(NC(=O)c3cc(-c4ccc(F)cc4)n[nH]3)cc2C1=O` returned an RP-LC retention time of 686 s.

On to `Cc1ccc(C)c(-c2cc3c4nn(CC(=O)N(C)c5ccc(F)cc5)c(=O)n4ccn3n2)c1`, for which the RP-LC retention time was 1020 s.

Compound `CCOC(=O)N1CCC(NC(=O)C(=O)NCCC2=CCCCC2)CC1` showed an RP-LC retention time of 842 s.

As to `COc1ccc2c(c1)C1(CCN(C(=O)NC(C)C)C1)C(=O)N2C` (centres undefined), the RP-LC retention time worked out at 681 s.

Regarding `c1ccc(Cn2cnnc2C2CCN(CC3CC3)CC2)cc1`, the RP-LC retention time stood at 566 s.

On to `CCOC(=O)c1c(C)[nH]c(C(=O)N2CCCC(C(=O)NCc3cccc(C)c3)C2)c1C` (centres undefined), for which the RP-LC retention time was 863 s.

As for `COc1ccc(-c2nc3cnccn3c2Nc2ccc(C)cc2Br)cc1`, the RP-LC retention time was 1040 s.

The compound `CCC(=O)N1c2ccc(S(=O)(=O)CCC(=O)N3CCCc4ccccc43)cc2CC1C` (centres undefined) had an RP-LC retention time of 881 s.

Consider `O=C(Cc1ccccc1F)N1C[C@H]2CNC(=O)[C@]23CCCC[C@@H]13`, for which the RP-LC retention time amounted to 683 s.

`Cc1ccc(NS(=O)(=O)c2ccc(-c3c(C)noc3C)cc2)c(C)c1` yielded an RP-LC retention time of 985 s.

(Values after the METLIN SMRT retention time set (Domingo-Almenara et al. 2019).)
